According to BindingDB's records for PubMed 38748608 (University of Florida):

Biological target: Neuronal acetylcholine receptor alpha9/alpha10 (Homo sapiens)
Test: Partial agonist activity at human alpha9alpha10 nAChR expressed as xenopus laevis oocytes assessed as increase in receptor desensitization measured after 120 secs by two-electrode voltage-clamp electrophysiology method

With `CC[N+]1(C)CCN(c2ccc(NC(C)=O)cc2)CC1` the EC50 was 640 nM.
